By IC50 is commonly meant the midpoint of a concentration-inhibition curve.

The results in this text go back to patent publication US9403830B2, “Inhibitors of leukotriene production” (Boehringer Ingelheim International GmbH, priority 2012, dated 2016).

One assay has as its target T1, human LTA4 hydrolase (Homo sapiens, UniProt P09960).
T1 sequence (P09960 1-611): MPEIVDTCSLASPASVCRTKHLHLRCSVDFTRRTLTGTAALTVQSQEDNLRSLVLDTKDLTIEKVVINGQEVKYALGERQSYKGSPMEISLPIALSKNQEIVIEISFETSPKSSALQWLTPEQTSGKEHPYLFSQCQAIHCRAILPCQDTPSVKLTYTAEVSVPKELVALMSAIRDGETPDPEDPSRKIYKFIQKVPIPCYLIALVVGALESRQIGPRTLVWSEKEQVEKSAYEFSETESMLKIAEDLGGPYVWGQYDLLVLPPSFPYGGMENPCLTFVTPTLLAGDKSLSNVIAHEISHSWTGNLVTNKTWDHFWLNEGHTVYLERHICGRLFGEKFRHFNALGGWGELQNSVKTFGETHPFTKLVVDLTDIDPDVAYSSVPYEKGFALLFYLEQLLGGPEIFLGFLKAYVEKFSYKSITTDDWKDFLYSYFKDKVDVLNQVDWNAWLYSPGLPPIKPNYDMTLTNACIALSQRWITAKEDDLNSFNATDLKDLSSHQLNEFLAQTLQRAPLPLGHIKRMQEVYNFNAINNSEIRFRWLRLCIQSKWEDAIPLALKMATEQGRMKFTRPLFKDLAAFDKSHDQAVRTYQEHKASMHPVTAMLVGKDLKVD
The assay is described as follows: LTA4H Enzyme assay (peptidase, Arg-AMC cleavage). The assay is classed as biochemical. The conditions noted are these: LTA4H enzyme 1 nM, Arg-AMC substrate 50 μM, room temperature 1 h, fluorescence 380/460 nm. Summed up: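 Human LTA4H (1 nM final) incubated with compound and Arg-AMC (50 μM final) in 50 mM Tris-HCl pH 7.5, 100 mM KCl, 0.5% BSA, 1 h at room temperature. Product read as AMC fluorescence (ex 380/em 460 nm); IC50 reported.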

Assay [1] deals with LTB4 synthesis in human whole blood. The assay is described as follows: human whole blood (HWB) assay, inhibition of LTB4 production. The settings on record: heparinized human whole blood, calcimycin 20 μM stimulation, plasma LTB4. The assay is classed as cell-based. Summed up: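 Plasma LTB4, quantified by HTRF immunoassay, is the read-out after calcimycin challenge (20 μM final, 30 min, 37 °C) of heparinized whole blood that had been pretreated with compound for 15 min at 37 °C; values given as IC50.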

For `O=C(c1cn2ccc(Oc3ccc(-c4ccn[nH]4)cc3)cc2n1)N1CCOCC1` [Example 258, Morpholin-4-yl-{7-[4-(2H-pyrazol-3-yl)-phenoxy]-imidazo[1,2-a]pyridin-2-yl}-methanone], the IC50 against human LTA4 hydrolase was determined as 10 nM; in assay [1], 2000 nM.
Consider `CN(Cc1nc2cc(Oc3ccc(-c4ccn[nH]4)cc3)ccc2[nH]1)C1CCOCC1` [Example 230, Methyl-{5-[4-(2H-pyrazol-3-yl)-phenoxy]-1H-benzoimidazol-2-ylmethyl}-(tetrahydro-pyran-4-yl)-amine], for which the IC50 was found to be 0.19 nM on human LTA4 hydrolase and 200 nM in assay [1].
As to `c1cc(-c2ccc(Oc3ccc4nc(CN5CCC6(COC6)C5)ccc4c3)nc2)[nH]n1` [Example 20, 2-(2-Oxa-6-aza-spiro[3.4]oct-6-ylmethyl)-6-[5-(2H-pyrazol-3-yl)-pyridin-2-yloxy]-quinoline], the half-inhibitory concentration (IC50) against human LTA4 hydrolase was 0.3 nM; in assay [1], 82 nM.
Regarding `COCCN(Cc1nc2cc(Oc3ccc(-c4ccn[nH]4)cc3)ccc2[nH]1)C(C)C` [Example 183, Isopropyl-(2-methoxy-ethyl)-{5-[4-(2H-pyrazol-3-yl)-phenoxy]-1H-benzoimidazol-2-ylmethyl}-amine], the figures for the IC50 (against human LTA4 hydrolase; in assay [1]) were 0.17 nM and 150 nM, respectively.
The corresponding values for `COC[C@H]1CCCN1Cc1nc2cc(Oc3ccc(-c4ccn[nH]4)cc3)ccc2[nH]1` [Example 167, 2-((R)-2-Methoxymethyl-pyrrolidin-1-ylmethyl)-5-[4-(2H-pyrazol-3-yl)-phenoxy]-1H-benzoimidazole] are 0.14 nM and 120 nM.
The corresponding values for `COCC1CCCN(Cc2nc3cc(Oc4ccc(-c5ccn[nH]5)cc4)ccc3[nH]2)C1` (centres unmarked) [Example 156, 2-(3-Methoxymethyl-piperidin-1-ylmethyl)-5-[4-(2H-pyrazol-3-yl)-phenoxy]-1H-benzoimidazole] are 0.22 nM and 95 nM.
In the case of `O=C1CCC(c2cn3cc(Oc4ccc(-c5ccn[nH]5)cc4)ccc3n2)CN1` (centres unmarked) [Example 67, 5-{6-[4-(2H-Pyrazol-3-yl)-phenoxy]-imidazo[1,2-a]pyridin-2-yl}-piperidin-2-one], the IC50 turned out to be 1.4 nM at human LTA4 hydrolase and 480 nM in assay [1].
For `CN(Cc1nc2cc(Oc3ccc(-c4ccn[nH]4)cc3)ccc2[nH]1)C[C@@H]1CCCO1` [Example 76, Methyl-{5-[4-(2H-pyrazol-3-yl)-phenoxy]-1H-benzoimidazol-2-ylmethyl}-[(S)-1-(tetrahydro-furan-2-yl)methyl]-amine], the IC50 against human LTA4 hydrolase was found to be 0.2 nM; in assay [1] it was 87 nM.
The like results for `CN(Cc1nc2cc(Oc3ccc(-c4ccn[nH]4)cc3)ccc2[nH]1)[C@@H]1CCOC1` [Example 78, Methyl-{5-[4-(2H-pyrazol-3-yl)-phenoxy]-1H-benzoimidazol-2-ylmethyl}-(R)-tetrahydro-furan-3-yl-amine] were, in that order, 0.089 nM and 95 nM.
For the compound `N#C[C@@H]1CCN(Cc2ccc3cc(Oc4ccc(-c5ccn[nH]5)cn4)ccc3n2)C1` [Example 107, (R)-1-{6-[5-(2H-Pyrazol-3-yl)-pyridin-2-yloxy]-quinolin-2-ylmethyl}-pyrrolidine-3-carbonitrile], the figures for the IC50 (against human LTA4 hydrolase; in assay [1]) were 2 nM and 220 nM, respectively.
The corresponding values for `CC(=O)N1CCCN(CCc2coc3cc(Oc4ccc(-c5ccn[nH]5)cn4)ccc23)CC1` [Example 134, 1-[4-(2-{6-[5-(2H-Pyrazol-3-yl)-pyridin-2-yloxy]-benzofuran-3-yl}-ethyl)-[1,4]diazepan-1-yl]-ethanone] are 0.28 nM and 150 nM.
The corresponding values for `c1cc(-c2ccc(Oc3ccc4nc(CN5CCCC6(COC6)C5)ccc4c3)nc2)[nH]n1` [Example 48, 2-(2-Oxa-6-aza-spiro[3.5]non-6-ylmethyl)-6-[5-(2H-pyrazol-3-yl)-pyridin-2-yloxy]-quinoline] are 2.1 nM and 740 nM.
The like results for `COC1CCCN(Cc2nc3cc(Oc4ccc(-c5ccn[nH]5)cc4)ccc3[nH]2)C1` (centres unmarked) [Example 172, 2-(3-Methoxy-piperidin-1-ylmethyl)-5-[4-(2H-pyrazol-3-yl)-phenoxy]-1H-benzoimidazole] were, in that order, 0.07 nM and 130 nM.
As to `O=C1[C@@H](O)CCN1C1CCN(Cc2ccc3cc(Oc4ccc(-c5ccn[nH]5)cn4)ccc3c2)CC1` [Example 7, (S)-3-Hydroxy-1-(1-{6-[5-(2H-pyrazol-3-yl)-pyridin-2-yloxy]-naphthalen-2-ylmethyl}-piperidin-4-yl)-pyrrolidin-2-one], the values for the IC50 (on human LTA4 hydrolase; in assay [1]) were 0.68 nM and 180 nM, respectively.
The corresponding values for `CN(Cc1nc2cc(Oc3ccc(-c4ccn[nH]4)cc3)ccc2[nH]1)C[C@H]1CCCO1` [Example 81] are 0.27 nM and 100 nM.
Turning to `O=C1CCC2(CCN(Cc3ccc4cc(Oc5ccc(-c6ccn[nH]6)cn5)ccc4n3)CC2)N1` [Example 30, 8-{6-[5-(2H-Pyrazol-3-yl)-pyridin-2-yloxy]-quinolin-2-ylmethyl}-1,8-diaza-spiro[4.5]decan-2-one], the IC50 against human LTA4 hydrolase is 1.1 nM; in assay [1], 190 nM.
As for `c1cc(-c2ccc(Oc3ccc4c(CN5CCOCC5)n[nH]c4c3)nc2)[nH]n1` [Example 113, 3-Morpholin-4-ylmethyl-6-[5-(2H-pyrazol-3-yl)-pyridin-2-yloxy]-1H-indazole], the IC50 against human LTA4 hydrolase stood at 2.6 nM; in assay [1], 470 nM.
The corresponding values for `CC(=O)N1C[C@@H]2C[C@H]1CN2Cc1ccc2cc(Oc3ccc(-c4cc[nH]n4)cn3)ccc2n1` [Example 240, 1-((S)-5-{6-[5-(1H-Pyrazol-3-yl)-pyridin-2-yloxy]-quinolin-2-ylmethyl}-2,5-diaza-bicyclo[2.2.1]hept-2-yl)-ethanone] are 0.94 nM and 340 nM.
The corresponding values for `c1cc(-c2ccc(Oc3ccc4nc(CN5CCOCC5)ccc4c3)cc2)[nH]n1` [Example 254, 2-Morpholin-4-ylmethyl-6-[4-(2H-pyrazol-3-yl)-phenoxy]-quinoline] are 0.7 nM and 330 nM.
The like results for `COC1CCN(Cc2ccc3cc(Oc4ccc(-c5ccn[nH]5)cn4)ccc3n2)CC1` [Example 212, 2-(4-Methoxy-piperidin-1-ylmethyl)-6-[5-(2H-pyrazol-3-yl)-pyridin-2-yloxy]-quinoline] were, in that order, 1.2 nM and 250 nM.
As for `CC(=O)NC1CC2CCC(C1)N2Cc1ccc2cc(Oc3ccc(-c4cc[nH]n4)cn3)ccc2n1` (stereo not drawn) [Example 238, N-((endo)-8-{6-[5-(1H-Pyrazol-3-yl)-pyridin-2-yloxy]-quinolin-2-ylmethyl}-8-aza-bicyclo[3.2.1]oct-3-yl)-acetamide], the IC50 against human LTA4 hydrolase stood at 0.61 nM; in assay [1] it was 250 nM.
As for `CN(Cc1nc2cc(Oc3ccc(-c4ccn[nH]4)cc3)ccc2[nH]1)C1CCCC1` [Example 164, Cyclopentyl-methyl-{5-[4-(2H-pyrazol-3-yl)-phenoxy]-1H-benzoimidazol-2-ylmethyl}-amine], the figures for the IC50 (at human LTA4 hydrolase; in assay [1]) were 0.14 nM and 120 nM, respectively.
On to `CCN(Cc1nc2cc(Oc3ccc(-c4ccn[nH]4)cc3)ccc2[nH]1)[C@@H](C)COC` [Example 86, Ethyl-((S)-2-methoxy-1-methyl-ethyl)-{5-[4-(2H-pyrazol-3-yl)-phenoxy]-1H-benzoimidazol-2-ylmethyl}-amine], for which the IC50 against human LTA4 hydrolase is 0.056 nM; in assay [1] it was 120 nM.
The like results for `O=C1CC[C@H](Oc2ccc3cc(Oc4ccc(-c5ccn[nH]5)cc4)ccc3n2)CN1` [Example 68, (S)-5-{6-[4-(2H-Pyrazol-3-yl)-phenoxy]-quinolin-2-yloxy}-piperidin-2-one] were, in that order, 4.2 nM and 590 nM.
In the case of `CC(=O)N1CCN(Cc2ccc3cc(Oc4ccc(-c5ccn[nH]5)cn4)ccc3c2)CC1` [Example 2, 1-(4-{6-[5-(2H-Pyrazol-3-yl)-pyridin-2-yloxy]-naphthalen-2-ylmethyl}-piperazin-1-yl)-ethanone], the IC50 at human LTA4 hydrolase is 0.39 nM; in assay [1], 130 nM.
The like results for `C[C@@H]1CCCCN1Cc1nc2cc(Oc3ccc(-c4ccn[nH]4)cc3)ccc2[nH]1` [Example 165, 2-((R)-2-Methyl-piperidin-1-ylmethyl)-5-[4-(2H-pyrazol-3-yl)-phenoxy]-1H-benzoimidazole] were, in that order, 0.075 nM and 120 nM.
The corresponding values for `NC(=O)C1CCN(Cc2ccc3cc(Oc4ccc(-c5ccn[nH]5)cn4)ccc3c2)CC1` [Example 5, 1-{6-[5-(2H-Pyrazol-3-yl)-pyridin-2-yloxy]-naphthalen-2-ylmethyl}-piperidine-4-carboxylic acid amide] are 0.46 nM and 220 nM.
`CCN(CCO)Cc1nc2cc(Oc3ccc(-c4ccn[nH]4)cc3)ccc2[nH]1` [Example 192, 2-(Ethyl-{5-[4-(2H-pyrazol-3-yl)-phenoxy]-1H-benzoimidazol-2-ylmethyl}-amino)-ethanol]: the IC50 is 0.17 nM against human LTA4 hydrolase and 170 nM in assay [1].
